In US8541588B2, “Sulfonamide derivatives” (Pfizer Limited, priority 2009, dated 2013):

target: T1, Nav1.7 (or SCN9A) channel; HEK cells stably transfected with hSCN9A (Homo sapiens, UniProt Q15858); assay: Nav1.7 block, PatchXpress 7000 automated whole-cell voltage clamp, estimated IC50 (EIC50); type: cell-based; settings: PatchXpress platform; hSCN9A HEK cells held at V1/2 of inactivation; estimated IC50
T1 construct: expressed in transfected cells
T1 sequence (Q15858 whole entry): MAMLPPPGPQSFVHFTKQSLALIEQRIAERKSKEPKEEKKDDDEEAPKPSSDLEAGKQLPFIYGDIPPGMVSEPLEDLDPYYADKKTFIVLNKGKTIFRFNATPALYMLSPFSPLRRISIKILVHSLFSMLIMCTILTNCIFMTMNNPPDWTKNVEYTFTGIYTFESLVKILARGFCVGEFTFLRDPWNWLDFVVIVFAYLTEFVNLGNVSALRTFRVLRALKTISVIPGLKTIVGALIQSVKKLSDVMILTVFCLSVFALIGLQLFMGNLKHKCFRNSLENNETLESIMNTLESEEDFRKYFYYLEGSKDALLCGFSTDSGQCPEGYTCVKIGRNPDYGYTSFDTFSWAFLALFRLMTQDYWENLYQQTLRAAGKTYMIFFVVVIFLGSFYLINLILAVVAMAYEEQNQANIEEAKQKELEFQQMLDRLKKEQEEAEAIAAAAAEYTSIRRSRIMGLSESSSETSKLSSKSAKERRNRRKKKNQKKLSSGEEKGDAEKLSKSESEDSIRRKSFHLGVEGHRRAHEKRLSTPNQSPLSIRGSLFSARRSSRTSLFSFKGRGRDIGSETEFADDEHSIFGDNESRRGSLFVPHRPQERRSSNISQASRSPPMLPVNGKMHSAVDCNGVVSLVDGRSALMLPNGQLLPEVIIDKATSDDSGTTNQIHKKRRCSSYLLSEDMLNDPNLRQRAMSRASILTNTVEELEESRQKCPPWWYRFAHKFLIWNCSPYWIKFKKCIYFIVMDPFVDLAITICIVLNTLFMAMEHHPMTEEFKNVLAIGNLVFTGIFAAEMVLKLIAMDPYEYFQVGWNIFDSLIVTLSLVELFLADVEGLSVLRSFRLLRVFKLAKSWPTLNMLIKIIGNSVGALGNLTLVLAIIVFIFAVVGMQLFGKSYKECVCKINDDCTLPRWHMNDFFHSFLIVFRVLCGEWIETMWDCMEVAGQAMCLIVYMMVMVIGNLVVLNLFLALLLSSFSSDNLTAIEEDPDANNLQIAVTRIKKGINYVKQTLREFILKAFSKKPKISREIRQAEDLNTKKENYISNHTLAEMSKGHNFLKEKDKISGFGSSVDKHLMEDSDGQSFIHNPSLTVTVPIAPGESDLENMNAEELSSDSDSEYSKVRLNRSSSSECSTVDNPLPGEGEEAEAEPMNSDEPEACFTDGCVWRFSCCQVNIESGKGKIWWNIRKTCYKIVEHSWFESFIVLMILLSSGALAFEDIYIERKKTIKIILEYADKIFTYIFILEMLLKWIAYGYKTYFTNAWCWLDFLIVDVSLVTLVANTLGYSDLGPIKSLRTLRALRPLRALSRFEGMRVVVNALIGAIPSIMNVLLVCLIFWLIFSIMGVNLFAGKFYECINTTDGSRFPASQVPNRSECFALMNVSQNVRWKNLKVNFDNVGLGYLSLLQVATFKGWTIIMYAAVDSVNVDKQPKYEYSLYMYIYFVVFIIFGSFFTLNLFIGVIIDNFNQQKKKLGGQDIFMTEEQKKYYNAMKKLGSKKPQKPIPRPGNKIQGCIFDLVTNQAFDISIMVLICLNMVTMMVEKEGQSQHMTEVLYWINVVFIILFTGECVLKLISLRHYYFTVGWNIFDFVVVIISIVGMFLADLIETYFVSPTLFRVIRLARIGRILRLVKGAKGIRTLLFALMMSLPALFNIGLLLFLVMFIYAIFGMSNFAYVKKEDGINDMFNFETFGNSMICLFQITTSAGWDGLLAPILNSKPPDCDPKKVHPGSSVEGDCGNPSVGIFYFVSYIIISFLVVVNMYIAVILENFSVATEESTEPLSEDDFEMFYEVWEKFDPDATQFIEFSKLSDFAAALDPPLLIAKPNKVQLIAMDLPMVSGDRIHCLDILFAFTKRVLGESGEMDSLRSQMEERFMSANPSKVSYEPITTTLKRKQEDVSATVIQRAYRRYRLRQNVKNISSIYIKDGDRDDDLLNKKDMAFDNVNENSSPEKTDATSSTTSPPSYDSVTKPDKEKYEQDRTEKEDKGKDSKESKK

SMILES	IC50 [nM]
N#Cc1cc(S(=O)(=O)Nc2nccs2)ccc1Oc1ccc(-c2ccccc2)cc1 [Example 187, 4-(biphenyl-4-yloxy)-3-cyano-N-thiazol-2-yl-benzenesulfonamide]	1670
O=S(=O)(Nc1nccs1)c1ccc(Oc2cnn(Cc3ccc(Cl)cc3)c2)cc1F [Example 206, 4-(1-(4-chlorobenzyl)-1H-pyrazol-4-yloxy)-2-fluoro-N-(thiazol-2-yl)benzenesulfonamide]	1190
CN1C(=O)CCC1c1ccccc1Oc1ccc(S(=O)(=O)Nc2ncns2)cc1C#N (centres unmarked) [Example 69, 3-cyano-4-[2-(1-methyl-5-oxopyrrolidin-2-yl)phenoxy]-N-1,2,4-thiadiazol-5-ylbenzenesulfonamide]	36100
N#Cc1cc(S(=O)(=O)Nc2ncc(Cl)s2)ccc1Oc1ccccc1Oc1ccccc1 [Example 134, N-(5-chloro-1,3-thiazol-2-yl)-3-cyano-4-(2-phenoxyphenoxy)benzenesulfonamide]	3770
COc1ccccc1-c1ccccc1Oc1ccc(S(=O)(=O)Nc2nccs2)c(F)c1 [Example 208, 2-fluoro-4-(2′-methoxybiphenyl-2-yloxy)-N-(thiazol-2-yl)benzenesulfonamide]	130
N#Cc1cc(S(=O)(=O)Nc2ncns2)ccc1Oc1ccccc1-c1cccc(OC(F)(F)F)c1 [Example 55, 3-cyano-N-1,2,4-thiadiazol-5-yl-4-{[3′-(trifluoromethoxy)biphenyl-2-yl]oxy}benzenesulfonamide]	920
COc1ccc(-c2ccccc2Oc2ccc(S(=O)(=O)Nc3ncns3)cc2C#N)c(C)c1 [Example 10, 3-cyano-4-[(4′-methoxy-2′-methylbiphenyl-2-yl)oxy]-N-1,2,4-thiadiazol-5-ylbenzenesulfonamide]	630

Second part, the molecule after the results:

IC50 [nM]	SMILES
450	CN(C)c1ncc(Oc2ccc(S(=O)(=O)Nc3ncns3)cc2C#N)c(-c2ccc(F)cc2)n1 [Example 8, 3-cyano-4-{[2-(dimethylamino)-4-(4-fluorophenyl)pyrimidin-5-yl]oxy}-N-1,2,4-thiadiazol-5-ylbenzenesulfonamide]
3980	Cc1n[nH]c(C)c1-c1ccccc1Oc1ccc(S(=O)(=O)Nc2ncns2)cc1C#N [Example 62, 3-cyano-4-[2-(3,5-dimethyl-1H-pyrazol-4-yl)phenoxy]-N-1,2,4-thiadiazol-5-ylbenzenesulfonamide]

same assay, conditions: estimated IC50; hSCN9A HEK cells, PatchXpress platform; Examples 283-814

SMILES	IC50 [nM]
N#Cc1cc(S(=O)(=O)Nc2ncc(F)s2)ccc1Oc1ccc(Cl)c(Cn2ccnc2)c1 [Example 530, 4-[4-chloro-3-(1H-imidazol-1-ylmethyl)phenoxy]-3-cyano-N-(5-fluoro-1,3-thiazol-2-yl)benzenesulfonamide]	230
CN1CCN(c2ccc(Oc3ccc(S(=O)(=O)Nc4nccs4)cc3C#N)cc2)C1=O [Example 487, 3-cyano-4-[4-(3-methyl-2-oxoimidazolidin-1-yl)phenoxy]-N-1,3-thiazol-2-ylbenzenesulfonamide]	>1000
CN1CC(n2nccc2-c2cc(Cl)ccc2Oc2ccc(S(=O)(=O)Nc3cscn3)cc2C#N)C1 [Example 729, 4-{4-chloro-2-[1-(1-methylazetidin-3-yl)-1H-pyrazol-5-yl]phenoxy}-3-cyano-N-1,3-thiazol-4-ylbenzenesulfonamide]	22
Cc1cc(-c2ccc(Oc3ccc(S(=O)(=O)Nc4nccs4)cc3C#N)cc2)n(CCO)n1 [Example 374, 3-cyano-4-{4-[1-(2-hydroxyethyl)-3-methyl-1H-pyrazol-5-yl]phenoxy}-N-1,3-thiazol-2-ylbenzenesulfonamide]	1900
N#Cc1cc(S(=O)(=O)Nc2nccs2)ccc1Oc1ccc(-c2cccc(C(F)(F)F)n2)cc1 [Example 453, 3-cyano-N-1,3-thiazol-2-yl-4-{4-[6-(trifluoromethyl)pyridin-2-yl]phenoxy}benzenesulfonamide]	1700
CC1CN(c2ccc(Oc3ccc(S(=O)(=O)Nc4nccs4)cc3C#N)cc2)C(=O)N1 (centres unmarked) [Example 484, 3-cyano-4-[4-(4-methyl-2-oxoimidazolidin-1-yl)phenoxy]-N-1,3-thiazol-2-ylbenzenesulfonamide]	>1000
CCn1nc(C(F)(F)F)c(Cl)c1-c1ccc(Oc2ccc(S(=O)(=O)Nc3nccs3)cc2C#N)cc1 [Example 695, 4-{4-[4-chloro-1-ethyl-3-(trifluoromethyl)-1H-pyrazol-5-yl]phenoxy}-3-cyano-N-1,3-thiazol-2-ylbenzenesulfonamide]	340
N#Cc1cc(S(=O)(=O)Nc2nccs2)ccc1Oc1ccc(-c2nccc(C(F)(F)F)n2)cc1 [Example 454, 3-cyano-N-1,3-thiazol-2-yl-4-{4-[4-(trifluoromethyl)pyrimidin-2-yl]phenoxy}benzenesulfonamide]	>1000
N#Cc1cc(S(=O)(=O)Nc2ncc(I)s2)ccc1Oc1ccc(Cl)cc1-c1cn[nH]c1 [Example 582, 4-[4-Chloro-2-(1H-pyrazol-4-yl)phenoxy]-3-cyano-N-(5-iodo-1,3-thiazol-2-yl)benzenesulfonamide]	34
N#Cc1cc(S(=O)(=O)Nc2nccs2)ccc1Oc1ccc(Cl)cc1CN1CCC(F)(F)CC1 [Example 358, 4-{4-chloro-2-[(4,4-difluoropiperidin-1-yl)methyl]phenoxy}-3-cyano-N-1,3-thiazol-2-ylbenzenesulfonamide]	360
N#Cc1cc(S(=O)(=O)Nc2ncc(Cl)s2)ccc1Oc1ccc(F)cc1-c1ccnc(N)c1 [Example 584, 4-[2-(2-Aminopyridin-4-yl)-4-fluorophenoxy]-N-(5-chloro-1,3-thiazol-2-yl)-3-cyanobenzenesulfonamide]	97

The remaining lines, values ahead:

IC50 [nM]	SMILES
5.1	Nc1cc(-c2cc(Cl)ccc2Oc2cc(F)c(S(=O)(=O)Nc3ccncn3)cc2Cl)ccn1 [Example 812, 4-[2-(2-aminopyridin-4-yl)-4-chlorophenoxy]-5-chloro-2-fluoro-N-pyrimidin-4-ylbenzenesulfonamide]
3.8	O=S(=O)(Nc1ncns1)c1cc(Cl)c(Oc2ccc(F)cc2-c2ccnn2C2CNC2)cc1F [Example 810, 4-[2-(1-azetidin-3-yl-1H-pyrazol-5-yl)-4-fluorophenoxy]-5-chloro-2-fluoro-N-1,2,4-thiadiazol-5-ylbenzenesulfonamide]
4.8	N#Cc1cc(S(=O)(=O)Nc2ncns2)ccc1Oc1ccc(Cl)cc1-c1ccnn1C1CNC1 [Example 728, 4-[2-(1-azetidin-3-yl-1H-pyrazol-5-yl)-4-chlorophenoxy]-3-cyano-N-1,2,4-thiadiazol-5-ylbenzenesulfonamide]
77	O=S(=O)(Nc1cscn1)c1cc(Cl)c(Oc2ccc(Cl)cc2-c2cn[nH]c2)cc1F [Example 661, 5-chloro-4-[4-chloro-2-(1H-pyrazol-4-yl)phenoxy]-2-fluoro-N-1,3-thiazol-4-ylbenzenesulfonamide]
29	Cn1nccc1-c1cc(C(F)(F)F)ccc1Oc1cc(F)c(S(=O)(=O)Nc2ncns2)cc1F [Example 468, 2,5-difluoro-4-[2-(1-methyl-1H-pyrazol-5-yl)-4-(trifluoromethyl)phenoxy]-N-1,2,4-thiadiazol-5-ylbenzenesulfonamide]
72	CCn1nc(C(F)(F)F)cc1-c1ccc(Oc2ccc(S(=O)(=O)Nc3ncns3)cc2Cl)cc1 [Example 473, 3-chloro-4-{4-[1-ethyl-3-(trifluoromethyl)-1H-pyrazol-5-yl]phenoxy}-N-1,2,4-thiadiazol-5-ylbenzenesulfonamide]
6.2	O=S(=O)(Nc1ncns1)c1cc(F)c(Oc2ccc(C(F)(F)F)cc2-c2ccnnc2)cc1F [Example 805, 2,5-difluoro-4-[2-pyridazin-4-yl-4-(trifluoromethyl)phenoxy]-N-1,2,4-thiadiazol-5-ylbenzenesulfonamide]
620	CC(C)(C)n1nccc1-c1cc(F)ccc1Oc1ccc(S(=O)(=O)Nc2ncns2)cc1C#N [Example 285, 4-[2-(1-tert-butyl-1H-pyrazol-5-yl)-4-fluorophenoxy]-3-cyano-N-1,2,4-thiadiazol-5-ylbenzenesulfonamide]

same assay, conditions: estimated IC50; hSCN9A HEK cells, PatchXpress platform; Examples 815-1040

IC50 [nM]	SMILES
540	N#Cc1cc(S(=O)(=O)Nc2ncc(Cl)s2)ccc1Oc1cc(F)ccc1-c1ccn[nH]1 [Example 992, N-(5-chloro-1,3-thiazol-2-yl)-3-cyano-4-[5-fluoro-2-(1H-pyrazol-5-yl)phenoxy]benzenesulfonamide]
19	Nc1cc(-c2cc(Cl)ccc2Oc2cc(F)c(S(=O)(=O)Nc3cscn3)cc2F)ccn1 [Example 1020, 4-[2-(2-aminopyridin-4-yl)-4-dchlorophenoxy]-2,5-ifluoro-N-1,3-thiazol-4-ylbenzenesulfonamide]
5.9	O=S(=O)(Nc1nncs1)c1cc(F)c(Oc2ccc(Cl)cc2-c2ccnc(N3CCNCC3)c2)cc1F [Example 833, 4-[4-chloro-2-(2-piperazin-1-ylpyridin-4-yl)phenoxy]-2,5-difluoro-N-1,3,4-thiadiazol-2-ylbenzenesulfonamide]
14	O=C(c1cccc(-c2cc(Cl)ccc2Oc2cc(F)c(S(=O)(=O)Nc3nncs3)cc2Cl)c1)N1CCC1 [Example 857, 4-{[3′-(azetidin-1-ylcarbonyl)-5-chlorobiphenyl-2-yl]oxy}-5-chloro-2-fluoro-N-1,3,4-thiadiazol-2-ylbenzenesulfonamide]
100	O=S(=O)(Nc1ncns1)c1ccc(Oc2ccc(C(F)(F)F)cc2-c2ccnnc2)c(F)c1 [Example 929, 3-fluoro-4-[2-pyridazin-4-yl-4-(trifluoromethyl)phenoxy]-N-1,2,4-thiadiazol-5-ylbenzenesulfonamide]
21	N#Cc1cc(S(=O)(=O)Nc2ncns2)ccc1Oc1cc(OC(F)(F)F)c(F)cc1-c1ccnnc1 [Example 964, 3-cyano-4-[4-fluoro-2-pyridazin-4-yl-5-(trifluoromethoxy)phenoxy]-N-1,2,4-thiadiazol-5-ylbenzenesulfonamide]
4.4	O=C(c1cccc(-c2cc(Cl)ccc2Oc2cc(F)c(S(=O)(=O)Nc3ncns3)cc2Cl)n1)N1CCC1 [Example 859, 4-{2-[6-(azetidin-1-ylcarbonyl)pyridin-2-yl]-4-chlorophenoxy}-5-chloro-2-fluoro-N-1,2,4-thiadiazol-5-ylbenzenesulfonamide]
